Assay results taken from patent US20160113925A1, “METHODS OF TREATING CANCER WITH A COMBINATION OF GLUCOSE MODULATORS AND BCL-2 INHIBITORS” (EMORY UNIVERSITY, priority 2014, published 2016).
Where a name gives a salt, the structure may show the parent alone.

Columns and labels:
Assay type in all cases: cell-based
[1] = tested on: L363, KMS11, MM.1S and AMO1 cell lines; assay: Metabolic supplementation of glutamine deprived MM cell lines: reversal of sensitization to ABT-199; conditions: glutamine deprived L363, KMS11, MM.1S and AMO1 cell lines supplemented with metabolite
Excerpt: The metabolic specificity of glutamine deprivation-induced sensitization to ABT-199 […]. Glutamine deprived cells were supplemented with various metabolites generated by metabolism of glutamine and evaluated for their ability to reverse sensitization to ABT-199. Glutamine deprived MM cell lines were supplemented with galactose, dimethyl fumarate, dimethyl succinate, oxaloacetic acid, 2 methyl pyruvate, a mixture of non-essential amino acids or cell permeant dimethyl alpha ketoglutarate (DMK).

MM cell lines = assay: Sensitization of MM cell lines to ABT-199 (venetoclax) by ritonavir or DON; conditions: MM cell lines cultured with ritonavir (40 uM) or DON (0.1 mM); FIGS. 1 and 2
Excerpt: (§1) Ritonavir is an HIV […] that is also a reversible non-competitive inhibitor of glucose transport through GLUT4. […] Glutamine antagonist DON (6-Diazo-5-oxo-L-norleucine) effectively block first step of glutaminolysis pathway and thus restrict cells for using glutamine.

MM patient samples = assay: Sensitization of MM patient samples to ABT-199 (venetoclax) by ritonavir or DON; conditions: for efficacy of the combination with ABT-199 (venetoclax) in patient samples: highly responsive samples were from relapse refractory patients
Excerpt: as §1

MM lines = assay: Impact of glucose or glutamine withdrawal on sensitivity of MM lines to ABT-199 (venetoclax)
Description: Eight MM cell lines were assessed for induction of apoptosis upon culture in media deprived of glucose, glutamine or both nutrients. While all cells are growth inhibited the extent of apoptosis elicited was highly variable. […] Continued survival upon nutrient deprivation despite induction of BIM could be due to increased sequestration of BIM with the induced BCL-2. […] The BH3 mimetic ABT-199 (venetoclax) targets the BIM-BCL-2 interaction. The impact of either glucose or glutamine withdrawal on sensitivity to ABT-199 (venetoclax) was evaluated.

Compound: O=C[C@H](O)[C@@H](O)[C@@H](O)[C@H](O)CO [galactose]
- reversal of glutamine deprivation-induced sensitization to ABT-199 [1]: only the addition of DMK reversed sensitization

Compound: CC(C)c1nc(CN(C)C(=O)N[C@H](C(=O)N[C@@H](Cc2ccccc2)C[C@H](O)[C@H](Cc2ccccc2)NC(=O)OCc2cncs2)C(C)C)cs1 [Ritonavir, 1,3-thiazol-5-ylmethyl N-[(2S,3S,5S)-3-hydroxy-5-[[(2S)-3-methyl-2-[[methyl-[(2-propan-2-yl-1,3-thiazol-4-yl)methyl]carbamoyl]amino]butanoyl]amino]-1,6-diphenylhexan-2-yl]carbamate]
- sensitivity to ABT-199 (venetoclax) in MM cell lines (MM cell lines): significantly increased sensitivity
- sensitivity to ABT-199 (venetoclax) in patient samples (MM patient samples): significantly increased sensitivity
- efficacy of the combination with ABT-199 (venetoclax) in patient samples (MM patient samples): highly efficacious

Compound: COC(=O)CCC(=O)OC [dimethyl succinate]
- reversal of glutamine deprivation-induced sensitization to ABT-199 [1]: only the addition of DMK reversed sensitization

Compound: COC(=O)C(C)=O [2 methyl pyruvate]
- reversal of glutamine deprivation-induced sensitization to ABT-199 [1]: only the addition of DMK reversed sensitization

Compound: [N-]=[N+]=CC(=O)CC[C@H](N)C(=O)O [DON, 6-Diazo-5-oxo-L-norleucine]
- sensitivity to ABT-199 (venetoclax) in MM cell lines (MM cell lines): increased sensitivity
- sensitivity to ABT-199 (venetoclax) in patient samples (MM patient samples): increased sensitivity
- efficacy of the combination with ABT-199 (venetoclax) in patient samples (MM patient samples): highly efficacious

Compound: COC(=O)CCC(=O)C(=O)OC [DMK, dimethyl alpha ketoglutarate]
- reversal of glutamine deprivation-induced sensitization to ABT-199 [1]: reversed sensitization

Compound: venetoclax [ABT-199 (venetoclax)]
- sensitization of MM lines to ABT-199 (venetoclax) on nutrient withdrawal (MM lines): sensitize all MM lines

Compound: O=C(O)CC(=O)C(=O)O [oxaloacetic acid]
- reversal of glutamine deprivation-induced sensitization to ABT-199 [1]: only the addition of DMK reversed sensitization

Compound: COC(=O)/C=C/C(=O)OC [dimethyl fumarate]
- reversal of glutamine deprivation-induced sensitization to ABT-199 [1]: only the addition of DMK reversed sensitization
